Source: patent US12491252B2, “Substituted 3-amino-5-phenylbenzamide compounds as covalent inhibitors of enhancer zeste homolog 2 (EZH2) and proteolysis-targeting chimeric derivatives thereof (PROTACs) that induce degradation of EZH2” (Northwestern University, priority 2021, dated 2025)

How the values were obtained:
SUZ12 [1] = assay: Western blot of SUZ12 in C4-2B cells; assay type: cell-based; conditions: FIG. 14, 10 μM for 6 days
H3K27me3 = assay: Western blot of H3K27me3 levels in C4-2B cells; assay type: cell-based; conditions: FIG. 14, 10 μM for 6 days
LNCaP cells [2] = assay: Live imaging cell proliferation of LNCaP cells; assay type: cell-based; conditions: FIG. 17A, monitored over 168 hours
From the text: FIG. 17A-17B. (FIG. 17A) Live imaging cell proliferation of LNCaP cells. […] DMSO is set as the negative control. […] (FIG. 17B) Colony assays using LnCaP cells after treatment with the indicated compounds for 7 days.

LNCaP cells [3] = assay: Colony assay using LnCaP cells; assay type: cell-based; conditions: FIG. 17B, treatment for 7 days
Experimental: FIG. 17A-17B. (FIG. 17A) Live imaging cell proliferation of LNCaP cells. Cells were treated with indicated compounds and monitored over 168 hours for proliferation by phase object confluence. DMSO is set as the negative control. […] (FIG. 17B) Colony assays using LnCaP cells after treatment with the indicated compounds for 7 days.

LNCaP cells [4] = assay: Imaging of LnCaP cells (cell density); assay type: cell-based; conditions: FIG. 18, 12 days' treatment
From the text: FIG. 18. Imaging of LnCaP cells after 12 days' treatment with the indicated compounds.

LNCaP cells [5] = assay: WST cell proliferation/viability assay in LNCaP cells; assay type: cell-based; conditions: FIG. 19A; LNCaP; 6 days
Experimental: FIG. 19A-19B. (FIG. 19A) WST cell proliferation assay of indicated compounds in LNCaP cells. […] (FIG. 19B) Effects of indicated compounds on EZH2, AR, and FOXA1 by western blot at 1 μM in LNCaP cells.
(§1) Cell proliferation was measured using WST-1 Kit (Clontech) according to manufacturer's protocol.

C4-2B cells [6] = assay: Live imaging cell proliferation of C4-2B cells; assay type: cell-based; conditions: FIG. 20A, monitored over 168 hours
From the text: FIG. 20A-20B. (FIG. 20A) Live imaging cell proliferation of C4-2B cells. […] DMSO is set as the negative control. […] (FIG. 20B) Colony assays using C4-2B cells after treatment with the indicated compounds for 7 days.

C4-2B cells [7] = assay: Colony assay using C4-2B cells; assay type: cell-based; conditions: FIG. 20B, treatment for 7 days
Experimental: FIG. 20A-20B. (FIG. 20A) Live imaging cell proliferation of C4-2B cells. Cells were treated with indicated compounds and monitored over 168 hours for proliferation by phase object confluence. DMSO is set as the negative control. […] (FIG. 20B) Colony assays using C4-2B cells after treatment with the indicated compounds for 7 days.

C4-2B cells [8] = assay: Imaging of C4-2B cells (cell density); assay type: cell-based; conditions: FIG. 21, 12 days' treatment
From the text: FIG. 21. Imaging of C4-2B cells after 12 days' treatment with the indicated compounds.

C4-2B cells [9] = assay: WST cell proliferation assay in C4-2B cells; assay type: cell-based; conditions: FIG. 22, 6 days
Experimental: FIG. 22A-22B. WST cell proliferation assay of indicated compounds in C4-2B cells. Cells were treated for 6 days. […] (FIG. 19B) Effects of indicated compounds on EZH2, AR, and FOXA1 by western blot at 1 μM in C4-2B cells.
as §1

[10] = Pharmacokinetics in mice, IP cassette dosing, plasma LC/MS/MS; assay type: in vivo, C57Bl/6 mouse; conditions: mouse, C57Bl/6 mice, 4 mg/kg IP, cassette format
Experimental: FIG. 35. Pharmacokinetics of indicated compounds. Compounds were administered to C57Bl/6 mouse mice at 4 mg/kg using intraperitoneal (IP) injection in cassette format. Plasma was collected at the indicated time points and analyzed by LC/MS/MS using standard methods.
For assessing pharmacokinetics, compounds were administered to C57Bl/6 mouse mice at 4 mg/kg using intraperitoneal (IP) injection in cassette format. Plasma was collected at the indicated time points and analyzed by LC/MS/MS using standard methods.

EZH2 [11] = molecular target: T1, EZH2 (Homo sapiens, UniProt Q15910); assay: Western blot of EZH2 protein in PC3 cells; conditions: FIG. 26, 6 days treatment
From the text: (Upper right western blot) Western blot analysis of EZH2 protein in PC3 cells after 6 days treatment.

EZH2 [12] = molecular target: T1, EZH2; assay: Western blot of EZH2 protein in C4-2B cells; conditions: FIG. 14, 10 μM for 6 days
EZH2 [13] = molecular target: T1, EZH2; assay: Western blot of EZH2 protein in DU-145 cells; conditions: FIG. 27, 6 days treatment
From the text: (Upper right western blot) Western blot analysis of EZH2 protein in DU-145 cells after 6 days treatment.

SU-DHL4 cells = assay: WST cell viability assay in SU-DHL4 cells; assay type: cell-based
Experimental: as §1

SU-DHL6 cells = assay: WST cell viability assay in SU-DHL6 cells; assay type: cell-based; conditions: Table 7; WST1 with higher dose on SU-DHL6
Experimental: as §1

SUZ12 [14] = assay: Western blot of SUZ12 in SU-DHL4 cells; assay type: cell-based; conditions: FIG. 33, 48 hours
Experimental: (§2) FIG. 33. […] Cell were treated for 48 hours with the indicated concentrations of compounds.

EED [15] = assay: Western blot of EED in SU-DHL4 cells; assay type: cell-based; conditions: FIG. 33, 48 hours
Experimental: as §2

SUZ12 [16] = assay: Western blot of SUZ12 in SU-DHL6 cells; assay type: cell-based; conditions: FIG. 33, 48 hours
Experimental: as §2

EED [17] = assay: Western blot of EED in SU-DHL6 cells; assay type: cell-based; conditions: FIG. 33, 48 hours
Experimental: as §2

T1 sequence (Q15910 whole entry): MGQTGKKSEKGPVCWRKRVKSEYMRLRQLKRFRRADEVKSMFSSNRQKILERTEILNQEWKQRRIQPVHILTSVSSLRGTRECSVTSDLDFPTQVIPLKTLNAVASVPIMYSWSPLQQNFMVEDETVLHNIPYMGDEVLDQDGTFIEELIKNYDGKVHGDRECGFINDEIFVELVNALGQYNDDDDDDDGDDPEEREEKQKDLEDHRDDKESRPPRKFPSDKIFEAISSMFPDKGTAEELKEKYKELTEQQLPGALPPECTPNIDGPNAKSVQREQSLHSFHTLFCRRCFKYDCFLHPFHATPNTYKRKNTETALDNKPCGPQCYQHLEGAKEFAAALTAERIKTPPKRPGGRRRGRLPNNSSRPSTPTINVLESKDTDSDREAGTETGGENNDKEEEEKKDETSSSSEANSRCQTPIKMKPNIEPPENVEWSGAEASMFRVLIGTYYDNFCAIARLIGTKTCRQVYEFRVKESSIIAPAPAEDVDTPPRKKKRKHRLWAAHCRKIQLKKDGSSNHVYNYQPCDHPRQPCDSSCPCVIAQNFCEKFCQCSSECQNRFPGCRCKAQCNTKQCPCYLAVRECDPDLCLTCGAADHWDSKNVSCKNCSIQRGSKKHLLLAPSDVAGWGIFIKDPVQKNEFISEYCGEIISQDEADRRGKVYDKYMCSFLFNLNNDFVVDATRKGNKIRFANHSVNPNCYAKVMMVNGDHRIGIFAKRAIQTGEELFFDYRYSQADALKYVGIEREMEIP
T1 sequence (Q15022 whole entry partner): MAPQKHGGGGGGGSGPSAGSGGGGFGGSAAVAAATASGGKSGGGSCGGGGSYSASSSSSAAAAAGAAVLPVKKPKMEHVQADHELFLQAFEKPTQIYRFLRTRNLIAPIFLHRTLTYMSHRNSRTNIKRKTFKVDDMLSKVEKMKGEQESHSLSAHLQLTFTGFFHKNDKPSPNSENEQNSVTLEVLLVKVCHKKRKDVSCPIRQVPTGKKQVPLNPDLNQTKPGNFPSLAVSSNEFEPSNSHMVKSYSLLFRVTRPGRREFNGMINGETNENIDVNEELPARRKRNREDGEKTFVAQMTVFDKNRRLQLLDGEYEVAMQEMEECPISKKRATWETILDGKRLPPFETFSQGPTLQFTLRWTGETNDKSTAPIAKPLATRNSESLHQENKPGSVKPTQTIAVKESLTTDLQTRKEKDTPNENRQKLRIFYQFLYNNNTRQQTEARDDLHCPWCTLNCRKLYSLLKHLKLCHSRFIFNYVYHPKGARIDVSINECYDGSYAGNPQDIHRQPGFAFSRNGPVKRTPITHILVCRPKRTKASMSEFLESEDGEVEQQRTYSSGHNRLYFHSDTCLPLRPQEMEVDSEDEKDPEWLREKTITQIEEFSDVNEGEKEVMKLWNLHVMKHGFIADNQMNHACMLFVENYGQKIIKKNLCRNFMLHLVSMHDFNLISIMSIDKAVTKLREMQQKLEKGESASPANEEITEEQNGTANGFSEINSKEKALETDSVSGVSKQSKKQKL
T1 sequence (O75530 whole entry partner): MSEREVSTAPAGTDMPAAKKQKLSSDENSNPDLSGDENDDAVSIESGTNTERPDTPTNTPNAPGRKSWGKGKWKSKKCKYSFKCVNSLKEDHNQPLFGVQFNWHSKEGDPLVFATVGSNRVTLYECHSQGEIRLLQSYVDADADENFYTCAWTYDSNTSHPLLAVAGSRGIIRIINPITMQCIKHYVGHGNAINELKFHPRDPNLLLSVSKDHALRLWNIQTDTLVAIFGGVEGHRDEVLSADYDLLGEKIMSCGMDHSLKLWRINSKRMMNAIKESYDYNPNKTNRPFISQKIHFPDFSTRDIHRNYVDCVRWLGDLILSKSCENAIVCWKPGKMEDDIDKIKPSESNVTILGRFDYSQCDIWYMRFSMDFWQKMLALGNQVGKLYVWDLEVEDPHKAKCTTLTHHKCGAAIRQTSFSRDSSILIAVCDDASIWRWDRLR

Compound: CCN(c1cc(-c2ccc(CN3CCN(CCCCCCCCCCCC(=O)N[C@H](C(=O)N4C[C@H](O)C[C@H]4C(=O)NCc4ccc(-c5scnc5C)cc4)C(C)(C)C)CC3)cc2)cc(C(=O)NCc2c(C)cc(C)[nH]c2=O)c1C)C1CCOCC1 [Compound 6287]
- Reduction of PRC2 component SUZ12 (SUZ12 [1]): reduction of PRC2 component SUZ12
- H3K27me3 levels (H3K27me3): reduced H3K27me3 levels
- Cell proliferation by phase object confluence (LNCaP cells [2]): greatest ability to decrease LnCaP proliferation
- Colonies (LNCaP cells [3]): significant reduction in the colonies
- Cell density by imaging (LNCaP cells [4]): significant reduction in the cell density
- Inhibition of proliferation (WST) (LNCaP cells [5]): similarly potent effects on inhibiting the proliferation
- Cell proliferation by phase object confluence (C4-2B cells [6]): decrease C4-2B proliferation
- Colonies (C4-2B cells [7]): significant reduction in the colonies
- Cell density by imaging (C4-2B cells [8]): significant reduction in the cell density
- Inhibition of proliferation (WST) (C4-2B cells [9]): similarly potent effects on inhibiting the proliferation
- Cmax [10]: 487 nM
- half-life [10]: 6.5 h
- EZH2 protein (western blot) (EZH2 [11]): significant reduction in EZH2
- Degradation of EZH2 (EZH2 [12]): strong degradation of EZH2
- EZH2 protein (western blot) (EZH2 [13]): significant reduction in EZH2

Compound: CCN(c1cc(-c2ccc(CN3CCOCC3)cc2)cc(C(=O)NCc2c(C)cc(C)[nH]c2=O)c1C)C1CCOCC1 [EPZ-6438, reference compound]
- Colonies (LNCaP cells [3]): reduction in colonies versus DMSO negative control
- Colonies (C4-2B cells [7]): reduction in colonies versus DMSO negative control
- HillSlope (best-fit value) (SU-DHL4 cells; Table 6, WST1 with higher dose on SU-DHL4): 0.005835
- HillSlope (best-fit value) (SU-DHL4 cells; Table 8, WST1 within 1 μM on SU-DHL4): −0.1692
- HillSlope (best-fit value) (SU-DHL4 cells; Table 9, WST1 within 1 μM on SU-DHL4 (as titled)): −0.4432
- HillSlope (best-fit value) (SU-DHL6 cells): −0.03015
- logIC50 (best-fit value) (SU-DHL6 cells): Unstable
- Degradation of SUZ12 (SUZ12 [14]): little or no effect
- Degradation of EED (EED [15]): little or no effect
- Degradation of SUZ12 (SUZ12 [16]): little or no effect
- Degradation of EED (EED [17]): little or no effect
